Laboratory results from ChEMBL document CHEMBL1201862, “PubChem BioAssay data set” (2004).
Activity calls are given as the source filed them.

Assays:
[1] = molecular target: G-protein coupled receptor 35 (Homo sapiens, UniProt Q9HC97); assay: inhibition of zaprinast-stimulated GPR35 beta-arrestin translocation – imaging, U2OS, beta-arrestin-GFP, zaprinast agonist, primary screen (AID 2058); format: functional;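 note: antagonist potency meaning inhibition of agonist-induced arrestin redistribution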
Streptococcus = assay: GAS UMAA2166 growth inhibition – luminescence, BacTiterGlo, counter-screen for streptokinase expression inhibitor project, dose response (AID 1915); format: functional, organism-based;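 note: potency for reduction of bacterial viability or growth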
[2] = test system: Streptococcus sp. 'group A'; assay: Streptococcus pyogenes SK(-)GAS viability under kanamycin – luminescence, BacTiterGlo, confirmation, counter-screen for streptokinase expression inhibitor project, dose response (AID 1900); format: functional, organism-based
[3] = molecular target: Peroxisome proliferator-activated receptor gamma/Nuclear receptor coactivator 2 (Homo sapiens, UniProt P37231); format: functional;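 note: agonist potency for raising coactivator recruitment to the receptor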
[4] = NIH3T3 cell viability loss – ATP luminescence, mouse fibroblasts, counter-screen, dose response (AID 2010); format: functional, cell-based;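 note: cells exposed to compound for about 90 hours before reading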
[5] = Trypanosoma cruzi growth suppression in host cells – NIH3T3 host cells, beta-gal luminescence, confirmation (AID 2044); format: functional, cell-based;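 note: intracellular parasites grown in NIH/3T3 mouse fibroblasts as host cells; luminescent beta-galactosidase reporter signal from transgenic T. cruzi replicating inside host cells; inhibitors lower the luminescence signal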
[6] = molecular target: Voltage-dependent T-type calcium channel subunit alpha-1H (Homo sapiens, UniProt O95180); format: functional;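 note: channel activity triggered by adding a high calcium stimulation buffer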
[7] = molecular target: Peroxisome proliferator-activated receptor gamma/Nuclear receptor coactivator 3 (Homo sapiens, UniProt P37231); format: functional;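 note: agonist potency for raising coactivator recruitment to the receptor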
Streptokinase A = molecular target: T1, Streptokinase A (Streptococcus pyogenes serotype M1, UniProt P10520); assay: viability-normalized secreted streptokinase activity reduction – plasminogen activation absorbance, OD405, dose response (AID 1914); format: functional, Streptococcus pyogenes M1 GAS;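 note: secreted streptokinase activity via plasminogen activation per viability signal from cell pellet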
T1 sequence (P10520 whole entry): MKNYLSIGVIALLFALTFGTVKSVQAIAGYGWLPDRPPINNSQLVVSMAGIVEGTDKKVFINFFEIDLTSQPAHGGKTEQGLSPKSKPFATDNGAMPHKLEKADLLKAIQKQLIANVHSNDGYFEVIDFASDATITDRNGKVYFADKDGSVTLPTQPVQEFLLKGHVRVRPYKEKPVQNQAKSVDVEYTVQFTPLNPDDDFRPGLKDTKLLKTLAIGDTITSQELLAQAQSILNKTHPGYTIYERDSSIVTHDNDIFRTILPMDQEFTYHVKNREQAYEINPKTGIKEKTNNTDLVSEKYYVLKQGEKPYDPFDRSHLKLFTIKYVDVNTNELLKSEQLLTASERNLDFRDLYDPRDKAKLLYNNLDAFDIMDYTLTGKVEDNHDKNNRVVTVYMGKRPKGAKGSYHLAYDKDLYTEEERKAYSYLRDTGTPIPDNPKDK

[8] = molecular target: Peroxisome proliferator-activated receptor gamma/Nuclear receptor coactivator 1 (Homo sapiens, UniProt P37231); format: functional;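 note: agonist potency as compounds enhance coactivator SRC-1 recruitment to PPARgamma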
[9] = HIV-1 AD8 envelope cell-cell fusion blockers – cherry-pick, dose response (AID 652062); format: functional, cell-based;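 note: luciferase signal from cell-cell fusion driven by HIV-1 clade B AD8 Env; potency is for inhibitors of fusion seen as a drop in luminescence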
[10] = blockers of HIV-1 ZM109 envelope-driven cell-cell fusion – HeLa effector, CEM target cells, luciferase, cherry-pick, dose response (AID 652058); format: functional, cell-based;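 note: luciferase signal from HIV-1 Env mediated cell-cell fusion of effector and target cells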
[11] = off-target signal loss in HeLa-CEM21 co-culture – HeLa F-luc CTL cells, cherry-picked, counter-screen for HIV-1 Env fusion inhibitor project, dose response (AID 652040); format: functional, cell-based;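 note: potency for signal decrease marking cytotoxic or nonspecific inhibition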
Ion channel NompC = Ion channel NompC (Danio rerio, UniProt Q7T1G6); assay: Fluorescence counterscreen assay for TRPML3 agonists: dose response cell-based high-throughput screening assay to identify agonists of the transient receptor potential channel N1 (TRPN1). [Related pubchem assays: 1526, 1424, 1448 ]; format: functional
Mucolipin-3 = Mucolipin-3 (Homo sapiens, UniProt Q8TDD5); assay: Dose response cell-based high-throughput screening assay for agonists of the transient receptor potential channel ML3 (TRPML3). [Related pubchem assays: 1526, 1424, 1448 ]; format: functional
[12] = blockers of HIV-1 envelope-mediated cell-cell fusion – cherry-pick, dose response (AID 652057); format: functional, cell-based
[13] = Luminescence-based counterscreen assay for KLF5 inhibitors: dose response cell-based high throughput screening assay to identify cytotoxic compounds using the IEC-6 intestinal epithelial cell line. [Related pubchem assays: 1700 (Primary screen.), 1834 (Confirmation screen.), 1858 (Summary AID.), 1905 (Counterscreen.)]; format: functional
[14] = molecular target: Eukaryotic translation initiation factor 4E (Mus musculus, UniProt P63073); assay: blockers of eIF4G binding by eIF4E – biochemical, TR-FRET, dose response (AID 855); format: functional;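 note: potency for disrupting eIF4E binding to eIF4GI seen as loss of FRET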
[15] = Counterscreen for IDE inhibitors: Luminescence-based cell-based high throughput dose response assay to identify compounds that are cytotoxic to HEK cells. [Related pubchem assays: 434962 (Primary screen (IDE inhibitors in singlicate)), 449730 (Counterscreen (Cytotoxicity in triplicate)), 435028 (Confirmation (IDE inhibitors in triplicate)) …; format: functional; conditions: HEK293
Insulin-degrading enzyme = molecular target: T2, Insulin-degrading enzyme (Homo sapiens, UniProt P14735); assay: Dose Response: Fluorescence polarization-based cell-based high throughput dose response assay for inhibitors of insulin-degrading enzyme (IDE). [Related pubchem assays: 434962 (Primary screen (IDE inhibitors in singlicate)), 449730 (Counterscreen (Cytotoxicity in triplicate)), 435028 (Confirmation (IDE inhibitors in triplicate)), 434984 (Summary …; format: functional
T2 sequence (P14735 whole entry): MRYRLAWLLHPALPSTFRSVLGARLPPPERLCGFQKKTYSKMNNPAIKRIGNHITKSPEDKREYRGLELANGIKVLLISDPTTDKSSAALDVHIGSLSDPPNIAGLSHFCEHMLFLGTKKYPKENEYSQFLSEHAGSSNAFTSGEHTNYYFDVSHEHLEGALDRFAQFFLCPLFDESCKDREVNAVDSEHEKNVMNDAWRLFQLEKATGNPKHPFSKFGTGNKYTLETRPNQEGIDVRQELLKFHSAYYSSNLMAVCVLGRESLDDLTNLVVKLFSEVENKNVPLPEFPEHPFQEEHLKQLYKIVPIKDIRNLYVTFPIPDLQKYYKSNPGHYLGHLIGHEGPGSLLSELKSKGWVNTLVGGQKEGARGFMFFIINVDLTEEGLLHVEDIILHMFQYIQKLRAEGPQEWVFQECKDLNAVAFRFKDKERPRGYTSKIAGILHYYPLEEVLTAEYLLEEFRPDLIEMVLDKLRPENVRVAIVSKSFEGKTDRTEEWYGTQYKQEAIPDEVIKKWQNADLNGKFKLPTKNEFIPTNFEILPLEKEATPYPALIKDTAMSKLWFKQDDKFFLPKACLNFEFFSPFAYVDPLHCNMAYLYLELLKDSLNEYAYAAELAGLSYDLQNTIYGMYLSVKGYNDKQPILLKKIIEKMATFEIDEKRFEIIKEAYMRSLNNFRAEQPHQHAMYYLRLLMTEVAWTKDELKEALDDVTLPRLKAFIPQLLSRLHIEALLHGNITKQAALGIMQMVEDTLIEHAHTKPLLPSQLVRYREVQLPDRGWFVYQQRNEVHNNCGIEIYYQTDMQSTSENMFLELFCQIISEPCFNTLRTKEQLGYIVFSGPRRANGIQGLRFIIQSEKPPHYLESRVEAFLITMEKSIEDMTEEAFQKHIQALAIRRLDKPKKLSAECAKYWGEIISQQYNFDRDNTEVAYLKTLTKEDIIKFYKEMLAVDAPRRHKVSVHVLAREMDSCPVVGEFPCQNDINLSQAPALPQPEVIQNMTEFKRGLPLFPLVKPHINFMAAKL

Chain of Mucolipin-3 (Q8TDD5 whole entry, the tested form may be a part): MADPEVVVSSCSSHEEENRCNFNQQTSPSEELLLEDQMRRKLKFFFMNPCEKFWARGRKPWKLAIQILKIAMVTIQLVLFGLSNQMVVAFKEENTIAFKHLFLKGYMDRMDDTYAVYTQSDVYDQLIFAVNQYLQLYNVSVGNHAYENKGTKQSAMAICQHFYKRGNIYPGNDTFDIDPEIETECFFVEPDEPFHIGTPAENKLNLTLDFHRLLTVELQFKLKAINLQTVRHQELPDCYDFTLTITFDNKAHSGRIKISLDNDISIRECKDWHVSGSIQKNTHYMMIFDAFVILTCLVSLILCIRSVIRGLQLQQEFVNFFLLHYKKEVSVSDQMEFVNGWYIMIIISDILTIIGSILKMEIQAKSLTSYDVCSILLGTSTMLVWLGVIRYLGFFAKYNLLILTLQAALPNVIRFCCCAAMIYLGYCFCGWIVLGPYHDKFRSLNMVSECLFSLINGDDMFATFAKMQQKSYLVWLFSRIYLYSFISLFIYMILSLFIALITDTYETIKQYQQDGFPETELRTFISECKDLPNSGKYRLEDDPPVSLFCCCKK
Chain of Eukaryotic translation initiation factor 4E (P63073 whole entry): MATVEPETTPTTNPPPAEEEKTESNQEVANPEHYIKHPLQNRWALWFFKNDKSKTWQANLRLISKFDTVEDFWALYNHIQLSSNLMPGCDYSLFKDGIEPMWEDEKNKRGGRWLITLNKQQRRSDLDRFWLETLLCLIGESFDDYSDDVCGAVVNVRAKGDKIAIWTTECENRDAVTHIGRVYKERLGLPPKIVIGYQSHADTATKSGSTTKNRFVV
Chain of Peroxisome proliferator-activated receptor gamma/Nuclear receptor coactivator 3 (P37231 whole entry): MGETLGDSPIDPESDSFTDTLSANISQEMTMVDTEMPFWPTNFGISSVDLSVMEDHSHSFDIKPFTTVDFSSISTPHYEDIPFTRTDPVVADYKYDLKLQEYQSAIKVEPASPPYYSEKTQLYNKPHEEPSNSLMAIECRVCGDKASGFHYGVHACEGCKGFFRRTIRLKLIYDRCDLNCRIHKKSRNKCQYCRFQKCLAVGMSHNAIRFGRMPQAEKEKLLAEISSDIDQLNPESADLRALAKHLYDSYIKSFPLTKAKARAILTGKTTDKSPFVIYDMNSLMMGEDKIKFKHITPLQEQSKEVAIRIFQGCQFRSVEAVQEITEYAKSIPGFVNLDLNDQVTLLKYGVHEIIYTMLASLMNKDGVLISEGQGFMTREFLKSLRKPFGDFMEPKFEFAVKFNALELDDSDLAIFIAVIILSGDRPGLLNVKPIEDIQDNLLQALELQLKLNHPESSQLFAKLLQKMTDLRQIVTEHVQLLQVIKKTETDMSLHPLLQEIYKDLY
Chain of Peroxisome proliferator-activated receptor gamma/Nuclear receptor coactivator 3 (Q9Y6Q9 whole entry, further chain): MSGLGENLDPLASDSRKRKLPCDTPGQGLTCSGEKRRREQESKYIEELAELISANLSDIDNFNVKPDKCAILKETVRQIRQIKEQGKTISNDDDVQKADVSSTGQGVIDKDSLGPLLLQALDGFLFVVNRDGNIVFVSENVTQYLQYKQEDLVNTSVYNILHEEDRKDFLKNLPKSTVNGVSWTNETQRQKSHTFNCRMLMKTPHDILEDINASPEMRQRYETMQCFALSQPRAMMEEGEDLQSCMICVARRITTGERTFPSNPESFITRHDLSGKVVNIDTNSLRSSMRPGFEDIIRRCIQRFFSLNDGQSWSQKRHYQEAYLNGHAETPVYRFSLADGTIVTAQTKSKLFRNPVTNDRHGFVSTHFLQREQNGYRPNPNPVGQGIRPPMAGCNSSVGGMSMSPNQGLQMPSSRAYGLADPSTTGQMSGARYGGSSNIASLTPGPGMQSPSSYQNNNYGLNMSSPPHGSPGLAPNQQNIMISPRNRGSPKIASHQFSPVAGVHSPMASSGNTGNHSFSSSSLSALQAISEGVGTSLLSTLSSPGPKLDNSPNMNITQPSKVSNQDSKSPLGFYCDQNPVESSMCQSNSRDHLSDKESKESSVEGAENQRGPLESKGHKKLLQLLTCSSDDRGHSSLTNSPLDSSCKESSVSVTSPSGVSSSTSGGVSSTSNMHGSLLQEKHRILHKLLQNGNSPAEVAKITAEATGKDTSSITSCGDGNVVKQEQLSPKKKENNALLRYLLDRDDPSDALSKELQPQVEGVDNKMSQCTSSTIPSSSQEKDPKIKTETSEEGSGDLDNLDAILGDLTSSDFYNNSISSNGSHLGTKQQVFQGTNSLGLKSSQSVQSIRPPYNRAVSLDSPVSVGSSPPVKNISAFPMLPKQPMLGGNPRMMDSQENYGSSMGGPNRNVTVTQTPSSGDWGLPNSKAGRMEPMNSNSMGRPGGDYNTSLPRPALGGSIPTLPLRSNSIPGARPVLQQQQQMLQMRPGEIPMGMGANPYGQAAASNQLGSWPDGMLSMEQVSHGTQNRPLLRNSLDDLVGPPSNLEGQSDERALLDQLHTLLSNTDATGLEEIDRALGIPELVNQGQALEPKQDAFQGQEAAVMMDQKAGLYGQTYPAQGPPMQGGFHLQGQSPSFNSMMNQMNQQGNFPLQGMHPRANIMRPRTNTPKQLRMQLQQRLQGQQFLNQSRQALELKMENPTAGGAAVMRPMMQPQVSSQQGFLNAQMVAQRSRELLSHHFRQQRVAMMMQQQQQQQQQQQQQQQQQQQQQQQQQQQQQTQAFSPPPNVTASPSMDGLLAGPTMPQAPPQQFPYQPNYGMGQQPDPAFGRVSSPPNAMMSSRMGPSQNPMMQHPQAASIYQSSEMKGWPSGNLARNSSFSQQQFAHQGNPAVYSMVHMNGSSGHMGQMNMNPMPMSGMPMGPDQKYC
Chain of Peroxisome proliferator-activated receptor gamma/Nuclear receptor coactivator 1 (P37231 whole entry, the tested form may be a part): as the sequence (P37231 whole entry) above
Chain of Peroxisome proliferator-activated receptor gamma/Nuclear receptor coactivator 1 (Q15788 whole entry, further chain, the tested form may be a part): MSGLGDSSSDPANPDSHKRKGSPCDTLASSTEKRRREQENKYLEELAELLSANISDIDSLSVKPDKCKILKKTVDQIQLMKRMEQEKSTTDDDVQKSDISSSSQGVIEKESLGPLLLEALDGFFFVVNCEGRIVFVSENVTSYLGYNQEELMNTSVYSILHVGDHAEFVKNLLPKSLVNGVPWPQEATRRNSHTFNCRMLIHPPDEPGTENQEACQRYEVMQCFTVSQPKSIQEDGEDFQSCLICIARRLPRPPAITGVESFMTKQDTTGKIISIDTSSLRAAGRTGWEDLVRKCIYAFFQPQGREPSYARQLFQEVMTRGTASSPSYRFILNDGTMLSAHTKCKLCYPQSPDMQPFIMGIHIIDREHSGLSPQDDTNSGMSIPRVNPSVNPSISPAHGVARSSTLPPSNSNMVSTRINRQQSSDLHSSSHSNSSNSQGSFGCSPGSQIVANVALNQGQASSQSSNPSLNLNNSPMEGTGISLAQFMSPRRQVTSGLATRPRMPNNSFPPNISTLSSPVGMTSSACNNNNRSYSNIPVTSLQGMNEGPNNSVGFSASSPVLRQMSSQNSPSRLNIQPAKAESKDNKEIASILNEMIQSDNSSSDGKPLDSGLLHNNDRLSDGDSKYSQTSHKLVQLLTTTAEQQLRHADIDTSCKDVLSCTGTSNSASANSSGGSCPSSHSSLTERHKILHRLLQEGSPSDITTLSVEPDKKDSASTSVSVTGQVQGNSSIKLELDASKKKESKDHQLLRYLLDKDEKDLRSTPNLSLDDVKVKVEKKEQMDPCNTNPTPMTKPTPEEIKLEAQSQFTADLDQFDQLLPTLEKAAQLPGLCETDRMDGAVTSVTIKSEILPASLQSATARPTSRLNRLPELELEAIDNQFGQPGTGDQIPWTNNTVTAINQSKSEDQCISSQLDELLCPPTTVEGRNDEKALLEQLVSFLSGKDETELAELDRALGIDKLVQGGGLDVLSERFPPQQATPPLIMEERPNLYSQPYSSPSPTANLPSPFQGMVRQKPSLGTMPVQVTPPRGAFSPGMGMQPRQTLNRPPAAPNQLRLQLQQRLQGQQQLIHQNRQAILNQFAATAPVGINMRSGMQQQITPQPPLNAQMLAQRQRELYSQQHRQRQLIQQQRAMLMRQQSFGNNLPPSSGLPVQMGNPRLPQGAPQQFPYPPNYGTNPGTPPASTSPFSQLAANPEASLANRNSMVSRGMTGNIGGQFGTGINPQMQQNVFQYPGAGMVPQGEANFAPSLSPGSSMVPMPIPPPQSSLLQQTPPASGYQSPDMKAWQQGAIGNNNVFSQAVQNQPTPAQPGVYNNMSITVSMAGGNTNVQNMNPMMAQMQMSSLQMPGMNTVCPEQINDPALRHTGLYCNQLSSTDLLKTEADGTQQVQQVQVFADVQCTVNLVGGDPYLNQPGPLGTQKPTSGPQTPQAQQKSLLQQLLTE
Chain of G-protein coupled receptor 35 (Q9HC97 whole entry): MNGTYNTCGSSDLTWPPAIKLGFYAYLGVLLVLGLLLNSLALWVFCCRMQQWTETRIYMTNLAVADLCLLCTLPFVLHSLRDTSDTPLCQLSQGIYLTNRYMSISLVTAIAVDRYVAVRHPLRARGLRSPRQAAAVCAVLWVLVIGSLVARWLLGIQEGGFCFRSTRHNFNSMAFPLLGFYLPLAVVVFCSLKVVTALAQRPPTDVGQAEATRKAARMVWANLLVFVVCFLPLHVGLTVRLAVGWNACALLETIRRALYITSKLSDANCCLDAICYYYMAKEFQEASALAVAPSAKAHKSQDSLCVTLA

Compound: CCCOc1cc(N(CC)CC)ccc1/C=C(/C#N)c1nc2cc(C)ccc2[nH]1
- IC50 [1]: 0.573 µM (active)
- EC50 (Streptococcus): > 150 µM (not active)
- EC50 [2]: 41.5 µM (active)
- EC50 [3]: > 79.4 µM (not active)
- EC50 [4]: > 60 µM (not active)
- EC50 [5]: 0.937 µM (active)
- EC50 [6]: 1.19 µM (active)
- EC50 [7]: > 79.4 µM (not active)
- EC50 (Streptokinase A): 31.9 µM (active)
- EC50 [8]: > 79.4 µM (not active)

Compound: Cc1cc(C)c(S(=O)(=O)N2CCCCC2)cc1N(C)S(=O)(=O)c1ccc(Cl)cc1
- AC50 [9]: 8.27 µM (active)
- AC50 [10]: 7.77 µM (active)
- AC50 [11]: 11.2 µM (active)
- EC50 (Ion channel NompC): > 29.9 µM (not active)
- EC50 (Mucolipin-3): 1.37 µM (active)
- AC50 [12]: 5.6 µM (active)

Compound: COc1ccc(OC)c(Nc2nc(=O)c3cccnc3s2)c1
- IC50 [13]: > 39.8 µM (not active)
- IC50 [14]: 50 µM (inactive)

Compound: O=C(NCCC1=CCCCC1)Nc1ccc2nsnc2c1
- IC50 [15]: 23.8 µM (not active)
- IC50 (Insulin-degrading enzyme): > 56 µM (not active)
